This is an account of results in publication PMC6147075, “Discovery of novel fragments inhibiting O-acetylserine sulphhydrylase by combining scaffold hopping and ligand–based drug design” (Journal of Enzyme Inhibition and Medicinal Chemistry, 2018).

Broadly, the inhibition is how much of the control response was suppressed. Broadly, the Kd is the free concentration of one partner at which half of the binding sites on the other are occupied at equilibrium, for simple one-to-one binding.

Series [1] concerns the target T1, OASS-B (Salmonella typhimurium, UniProt P29848).
T1 construct: His6 (N, cleaved yes); made in house; host or cells: E. coli Rosetta (DE3)
T1 sequence (P29848 1-303): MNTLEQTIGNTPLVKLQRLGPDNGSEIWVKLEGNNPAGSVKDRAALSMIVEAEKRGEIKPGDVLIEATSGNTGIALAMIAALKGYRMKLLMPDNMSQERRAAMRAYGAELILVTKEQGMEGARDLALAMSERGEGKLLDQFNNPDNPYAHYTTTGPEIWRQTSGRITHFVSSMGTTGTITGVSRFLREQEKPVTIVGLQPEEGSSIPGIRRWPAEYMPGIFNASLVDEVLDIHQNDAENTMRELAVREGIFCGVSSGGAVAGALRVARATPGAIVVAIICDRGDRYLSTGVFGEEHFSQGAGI
The series is described as follows: 96-well activity assay (cysteine-ninhydrin), OASS-B. The series is classed as biochemical. The conditions noted are these: for inhibition at 1000 µM: read-out: % inhibition OASS-B; for % inhibition OASS-B: compound 1 µM, bisulfide 600 µM, OAS at Km, two replicates, ns = Not Significant. The protocol: (§1) The genes cysK and cysM encoding STOASS-A and STOASS-B, respectively, were subcloned from pET16b[34] to pET19m in order to replace the restriction site for Factor Xa with the one for TEV protease. pET19m-STcysK and pET19m-STcysM were transformed in E. coli Rosetta^TM (DE3) competent cells for protein expression. Protein expression and purification was performed following published protocols[34] with some modifications. Briefly, protein expression was induced on bacterial growth in exponential phase by IPTG for 4 and 5 h for OASS-B and OASS-A, respectively. Cells were lysed by pulsed sonication in 50 mM NaP, 300 mM NaCl, pH 7, with the addition of 1 mg/mL lysozyme. Purification was performed by immobilized metal affinity column (IMAC) on Co^2+ ions (Talon™, Clontech Laboratories, Inc., Mountain View, CA). Proteins were eluted with 250 mM (His6-OASS-A) or 600 mM (His6-OASS-B) imidazol. His-tag was removed from His6-OASS-A by treatment with TEV protease during O/N dialysis in 10 mM HEPES pH 8. His-tag was removed from His6-OASS-B by treatment with TEV protease in 20 mM HEPES, 100 mM NaCl, 1 mM TCEP pH 8 for 24 h at 5 °C. […] OASS-A was stored in 10 mM HEPES pH 8 and OASS-B in 20 mM HEPES, 100 mM NaCl, 1 mM TCEP pH 8.
(§2) The concentration of bisulfide was saturating (600 μM), whereas the concentration of OAS was set at Km to increase the sensitivity. The dissociation constant of selected compounds for StOASS-A and OASS-B was measured by a fluorimetric method published elsewhere[23]^,[24]. Briefly, a solution containing 1 µM StOASS-A in 100 mM Hepes pH 7 was titrated with increasing concentrations of compound at 20 °C. The fluorescence emission intensity of the PLP cofactor at 505 nm upon excitation at 412 nm was collected after each addition, subtracted by the blank and normalized by the protein dilution. The dependence of the emission intensity at 505 nm on the concentration of the compound was fitted to a binding isotherm[23] to calculate the dissociation constant of the protein-ligand complex.

In a further series the target is T2, OASS-A (Salmonella typhimurium, UniProt P0A1E3).
T2 construct: His6 (N, cleaved yes); made in house; host or cells: E. coli Rosetta (DE3)
T2 sequence (P0A1E3 whole entry): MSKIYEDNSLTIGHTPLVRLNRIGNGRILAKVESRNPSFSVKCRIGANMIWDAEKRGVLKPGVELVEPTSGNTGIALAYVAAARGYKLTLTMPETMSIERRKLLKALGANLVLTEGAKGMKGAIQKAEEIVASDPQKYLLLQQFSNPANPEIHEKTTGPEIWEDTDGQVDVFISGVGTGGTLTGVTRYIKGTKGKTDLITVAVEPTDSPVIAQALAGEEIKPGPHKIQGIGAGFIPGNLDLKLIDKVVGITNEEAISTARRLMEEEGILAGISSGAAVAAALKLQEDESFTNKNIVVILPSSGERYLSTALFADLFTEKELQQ
In words: 96-well activity assay (cysteine-ninhydrin), OASS-A. It is filed as biochemical, Salmonella enterica serovar Typhimurium. Particulars: bisulfide 600 µM, OAS at Km, two replicates. The protocol: as §1, §2

The next series deals with OASS. Particulars: cited from earlier work.
A further series has as its target T3, StOASS-A (Salmonella typhimurium, UniProt P0A1E3).
T3 construct: His6 (N, cleaved yes); made in house; host or cells: E. coli Rosetta (DE3)
In words: Fluorimetric binding titration (PLP emission), StOASS-A. Details: species or system Salmonella enterica serovar Typhimurium. The conditions noted are these: for Kd: 1 µM StOASS-A, 100 mM Hepes pH 7, 20 °C, read-out: Kd OASS-A; for LE (OASS-A): LE = (1.37/HA). pIC50, HA = heavy atoms. The protocol: as §1, §2

Series [2] addresses T1, OASS-B. The series is described as follows: biochemical. It is filed as binding. The conditions noted are these: for LE (OASS-B): LE = (1.37/HA). pIC50, HA = heavy atoms. The protocol: as §1, §2
In series [3] the test system is cell envelope of Gram-negative bacteria. The conditions noted are these: not told.
For a further series, the system named is Salmonella. The series is described as follows: Activity against Salmonella in vitro. The series is classed as cell-based.
Series [4] has as its target T1, OASS-B. Details: method as in PMID 26894308. Particulars: previously reported reference compound 2; cited from earlier work.
[5] abbreviates: compound 1 µM, ns = Not Significant.
The mark [6] stands for this setting: compound 1 mM, read-out: % inhibition OASS-A.
The mark [7] stands for this setting: read-out: % inhibition OASS-A, compound 1 mM.

Molecules are shown by their SMILES. Where two headings read alike, the source gives them in different places.

T3 sequence (P0A1E3 whole entry): as above

Turning to `O=C(O)c1ccnn1-c1ccc(Cl)cc1` [Compound 4d, 1–(4-chlorophenyl)-1H-pyrazole-5-carboxylic acid], at OASS-B [1], the inhibition at 1 µM was 9 ± 6% and the inhibition at 1000 µM came to 56 ± 1%. The “% inhibition OASS-A” value on OASS-A (setting [5]) was “ns”. The inhibition at 1000 µM on OASS-A (setting [6]) came out at 60 ± 2%.
On to `O=C(O)c1ccn(-c2ccc(F)cc2)n1` [Compound 5g, 1–(4-fluorophenyl)-1H-pyrazole-3-carboxylic acid], for which, at OASS-B [1], the “% inhibition OASS-B” value was “ns” and the inhibition at 1000 µM was 36 ± 3%. Also, the “% inhibition OASS-A” value at OASS-A (setting [5]) is “ns”. In addition, the inhibition at 1000 µM on OASS-A (setting [6]) was found to be 73 ± 1%.
Regarding `C/C=C/[C@@H]1C[C@H]1C(=O)O` (racemic) [Compound 1, (±)-trans-2-[(1E)-prop-1-en-1-yl]cyclopropanecarboxylic acid], the Kd on OASS (read-out: Kd) is 1.46 µM.
`O=C(O)c1ccn(C2CCCCC2)n1` [Compound 5h, 1-cyclohexyl-1H-pyrazole-3-carboxylic acid]: at OASS-B [1], the “% inhibition OASS-B” value is recorded as “ns” and the inhibition at 1000 µM was 43 ± 3%. On OASS-A (setting [5]), the “% inhibition OASS-A” value is “ns”. In addition, at OASS-A (setting [6]), the inhibition at 1000 µM was 79 ± 1%.
For the molecule `Cc1ccc(-n2nccc2C(=O)O)cc1` [Compound 4a, 1-(p-tolyl)-1H-pyrazole-5-carboxylic acid], the “% inhibition OASS-B” value at OASS-B [1] is reported as “ns”. For the same molecule, the inhibition at 1000 µM stood at 65 ± 2% on OASS-B [1] and 50% on OASS-A (setting [7]). Besides, the “% inhibition OASS-A” value on OASS-A (setting [5]) is listed as “ns^b”; at OASS-A (compound 1 mM) it was 45 ± 3%.
As to `O=C(O)c1ccnn1-c1ccc(F)cc1` [Compound 4g, 1–(4-fluorophenyl)-1H-pyrazole-5-carboxylic acid], the inhibition at 1 µM was 14 ± 2% at OASS-B [1] and 8 ± 1% against OASS-A (setting [5]). Besides, the inhibition at 1000 µM at OASS-B [1] came to 62 ± 1%; at OASS-A (setting [6]), 95 ± 1%.
As to `CC(C)(C)c1ccc(-n2nccc2C(=O)O)cc1` [Compound 4f, 1–(4-(tert-butyl)phenyl)-1H-pyrazole-5-carboxylic acid], at OASS-B [1], the “% inhibition OASS-B” value is listed as “ns” and the inhibition at 1000 µM worked out at 52 ± 5%. For the same molecule, on OASS-A (setting [5]), the “% inhibition OASS-A” value is reported as “ns”. For the same molecule, the inhibition at 1000 µM on OASS-A (setting [6]) is 47 ± 1%.
As to `O=C(O)c1ccn(-c2ccc(Br)cc2)n1` [Compound 5e, 1–(4-bromophenyl)-1H-pyrazole-3-carboxylic acid], at OASS-B [1], the “% inhibition OASS-B” value is “ns” and the inhibition at 1000 µM was 35 ± 2%. Besides, the “% inhibition OASS-A” value on OASS-A (setting [5]) was “ns”. Also, the inhibition at 1000 µM on OASS-A (setting [6]) was 62 ± 1%.
On to `O=C(O)c1ccn[nH]1` [Compound 4c, 1H-pyrazole-5-carboxylic acid], for which, at StOASS-A, the Kd was 122 ± 5 µM and the “LE (OASS-A)” value was determined as 0.67 kcal/mol/HA. Further, on OASS-B [1], the “% inhibition OASS-B” value is “ns” and the inhibition at 1000 µM stood at 82 ± 1%. Further, at OASS-A (setting [5]), at 1 µM the inhibition was 9 ± 7%. At OASS-A (compound 1 mM), the “% inhibition OASS-A” value is on record as 94 ± 1%. In addition, the inhibition at 1000 µM at OASS-A (setting [6]) was > 90%. In addition, at OASS-B [2], binding was put at a Kd of 272 ± 10 µM and the “LE (OASS-B)” value came to 0.61 kcal/mol/HA.
For `O=C(O)c1ccn(-c2ccc(Cl)cc2)n1` [Compound 5d, 1–(4-chlorophenyl)-1H-pyrazole-3-carboxylic acid], at OASS-B [1], the inhibition at 1 µM came out at 15 ± 2% and the inhibition at 1000 µM was 63 ± 1%. In addition, on OASS-A (setting [5]), the “% inhibition OASS-A” value was “ns”. For the same molecule, the inhibition at 1000 µM at OASS-A (setting [6]) stood at 63 ± 1%.
As to `O=C(O)c1nccs1` [Compound 16, thiazole-2-carboxylic acid], at StOASS-A, the Kd amounted to 52 ± 6 µM and the “LE (OASS-A)” value stood at 0.74 kcal/mol/HA. At OASS-B [2], the Kd amounted to 338 ± 14 µM and the “LE (OASS-B)” value is 0.60 kcal/mol/HA.
Consider `CC(C)(C)c1ccc(-n2ccc(C(=O)O)n2)cc1` [Compound 5f, 1–(4-(tert-butyl)phenyl)-1H-pyrazole-3-carboxylic acid], for which, at OASS-B [1], the inhibition at 1 µM was determined as 11 ± 6% and the inhibition at 1000 µM was 82 ± 1%. Further, the “% inhibition OASS-A” value at OASS-A (setting [5]) is given as “ns”. Moreover, the inhibition at 1000 µM at OASS-A (setting [6]) was found to be 81 ± 1%.
With `O=C(O)c1ccnn1-c1ccc(Br)cc1` [Compound 4e, 1–(4-bromophenyl)-1H-pyrazole-5-carboxylic acid], the “% inhibition OASS-B” value at OASS-B [1] is “ns”. The inhibition at 1000 µM at OASS-B [1] is 58 ± 2%; on OASS-A (setting [7]), > 80%. The figures for the “% inhibition OASS-A” value on OASS-A (setting [5]) and at OASS-A (compound 1 mM) were “ns” and 84 ± 1%, respectively.
Regarding `O=C(O)c1ccc[nH]1` [Compound 14, 1H-pyrrole-2-carboxylic acid], at StOASS-A, the Kd stood at 59 ± 11 µM and the “LE (OASS-A)” value was determined as 0.72 kcal/mol/HA. In addition, at OASS-B [2], the affinity, expressed as Kd, was 465 ± 50 µM and the “LE (OASS-B)” value was determined as 0.60 kcal/mol/HA.
For the molecule `O=C(O)c1ccnn1-c1ccccc1` [Compound 4b, 1-phenyl-1H-pyrazole-5-carboxylic acid], at OASS-B [1], the inhibition at 1 µM is 11 ± 3%. In addition, the inhibition at 1000 µM on OASS-B [1] is 65 ± 1%; at OASS-A (setting [6]), 66 ± 1%. For the same molecule, the “% inhibition OASS-A” value at OASS-A (setting [5]) is reported as “ns”.
On to `Cc1ccc(C[C@@]2(C(=O)O)C[C@H]2c2ccccc2)cc1` [Compound 2, (1S,2S)-1–(4-methylbenzyl)-2-phenylcyclopropanecarboxylic acid], for which the “LE (OASS-A)” value on StOASS-A came to 0.52 kcal/mol/HA. Moreover, the “permeability through the cell envelope” value in series [3] was “poor permeability”. In addition, the “activity when tested against Salmonella in vitro” value with Salmonella was “did not show any activity”. Also, the Kd was 0.028 µM on OASS (read-out: Kd-OASS) and 0.049 µM on OASS-B [4]. The “LE (OASS-B)” value at OASS-B [2] is given as 0.50 kcal/mol/HA.
Consider `O=C(O)c1ccnn1C1CCCCC1` [Compound 4h, 1-cyclohexyl-1H-pyrazole-5-carboxylic acid], for which, at OASS-B [1], the “% inhibition OASS-B” value is reported as “ns” and the inhibition at 1000 µM worked out at 30 ± 1%. The “% inhibition OASS-A” value at OASS-A (setting [5]) is “ns”. The inhibition at 1000 µM on OASS-A (setting [6]) was 57 ± 1%.
